Results published in patent US20240368668A1, “SUBSTRATES AND BIOMARKERS OF ADAMTS7” (The Broad Institute, Inc., priority 2021, published 2024).
Square brackets hold non-standard residues; d marks the D form. Ends that are not written are not given here.

System: mouse ADAMTS7
Experiment: TMT10 TAILS N-terminomics, SMC2 experiment (process replicates, trypsin/AspN digest)
Assay type: cell-based
Conditions: SMC2_TAILS HC
Excerpt: ADAMTS7 Expression, Cell Culture and Preparation of the Secreted Proteins—Full-length mouse Adamts7 1-1857 (Uniprot Q68SA9, WT or E373Q catalytic mutant) with a carboxyl terminal 3xFLAG tag was used to generate custom adenoviruses as previously described. Adeno-CMV-Luciferase (Ad-Luc) from Vector Biolabs was used as a negative control. Human Coronary Artery Smooth Muscle Cells (HCA-SMC) were obtained from Lonza and expanded in Lonza SmGM-2 media in 15 cm tissue culture plates. Twenty-four hours before media collection, near confluent plates were transduced with 50 MOI adenovirus and switched to Lonza Basal SM media with volumes of 20 ml per 15 cm plate. Expression of the Flag tagged ADAMTS7 was confirmed from the media using western blot and detected using the anti-Flag M2-HRP antibody (Sigma, A8592). Collected media was processed by adding protease inhibitors (1 mM EDTA and 1 mM PMSF) and clarified by 500 g×5 min spin at 4 C to pellet cell debris. Cell media supernatants were then passed through a 0.22 um filter and kept chilled. Processed media was then concentrated 50-100× using 3 kDa Centricon Plus-70 filter unit, spun at 3,500 g×60 min at 4 C. Approximately 10% of the processed, concentrated media was set aside for total secretome proteolytic analysis. The remaining 90% of the processed, concentrated media was buffer exchanged into 50 mM HEPES pH 8.0, 150 mM NaCl (2×50 ml) using the 3 kDa Centricon Plus-70 filter unit and concentrated to >2 mg/ml to serve as input for the TAILS experiment. Secretome and TAILS input samples were stored at −80° C.
For the first experiment, referred to as SMC1, 120 ml of media from 6×15 cm dishes was pooled from each condition (Luc, WT, EQ) and processed to produce three separate inputs for the TAILS experiment. Luc, WT and EQ inputs from the SMC1 experiment were each divided into triplicate 400 ug samples to generate technical replicate TAILS data. For the second experiment, referred to as SMC2, media was processed separately in triplicate for each condition (Luc1, Luc2, Luc3, WT1, WT2, WT3, EQ1, EQ2, EQ3) using 60 ml of media from 3×15 cm dishes for each process replicate. Inputs from the SMC2 experiment used process replicates of 300 ug each to generate TAILS data. The third experiment used input from cultured Human umbilical vein endothelial cells (HUVEC) from Lifeline Cell Technology grown in VascuLife Media and transduced in Lifeline Basal EC (+bFGF2 10 ng/ml). The HUVEC experiment used the same strategy as the SMC2 experiment, with 40 ml of media from 2×15 cm dishes for each process replicate and used 200 ug each to generate TAILS data. Inputs for process replicate experiments were restricted to the lowest concentration from the 9 parallel samples for SMC2 or HUVEC.
TMT10 isotopic labeling and negative selection of non-labeled peptides-Sample preparation was performed based on the TAILS protocol from the Overall lab with some modifications. From a single experiment, nine parallel protein samples in 50 mM HEPES pH 8.0, 150 mM NaCl were separately denatured with guanidinium chloride (Sigma, G4505) to reach a final concentration of 2.5M guanidinium chloride and 250 mM HEPES and incubated at 65° C. for 15 min. Reduction was achieved through addition of tris(2-carboxylethyl) phosphine (TCEP) at a final concentration of […] and incubated at 65° C. for 45 min. Alkylation reaction was performed with addition of iodoacetamide (IAA, Sigma, A3221) to a final concentration of 10 mM IAA for 15 min at room temperature in the dark. Following denaturation, reduction and alkylation steps, ten percent of each of the nine parallel protein samples was removed and combined to serve as a pooled reference. Isobaric tags were added to free amine groups using the TMT10plex Isobaric Mass Tagging Kit (ThermoFisher, 90113) with TMT channels randomly assigned to the nine samples and TMT 131 assigned to the pooled reference. […]

[1] = log fold change of N-terminal peptide, Ad-mADAMTS7 WT over EQ

Substance | logFC.mWT.over.mEQ (log fold change, mWT over mEQ) | logFC.mWT.over.mEQ [1]
AEBP1_37 (FLEGFLSELEPEPR; listed as Homo sapiens) | 3.48 | –
CCDC80_66 (LEEPNLQPLQR; listed as Homo sapiens) | 2.21 | –
EFEMP1_124 (AVAGPEMQTGR; listed as Homo sapiens) | 3.27 | –
EFEMP1_125 (VAGPEMQTGR; listed as Homo sapiens) | 2.42 | –
FBLN2_259 (ALGPPAPVQAKAR; listed as Homo sapiens) | 1.88 | –
FBLN2_260 (LGPPAPVQAKAR; listed as Homo sapiens) | 2.42 | –
FBN1_29 (LEAGNVKETR; listed as Homo sapiens) | 3.57 | –
FBN1_53 (LKGPNVCGSR; listed as Homo sapiens) | 4.89 | –
FLNA_1285 (LTQTGGPHVKAR; listed as Homo sapiens) | 5.72 | –
FN1_36 (MVQPQSPVAVSQSKPGCYDNGKHYQINQQWER; listed as Homo sapiens) | 3.69 | –
FN1_40 (QSPVAVSQSKPGCYDNGKHYQINQQWER; listed as Homo sapiens) | 2.66 | –
FN1_1143 (LTPGVEYVYTIQVLR; listed as Homo sapiens) | 2.80 | –
FN1_1656 (SSSPVTGYR; listed as Homo sapiens) | 1.86 | –
GSN_413 (HIANVER; listed as Homo sapiens) | 1.74 | –
HSPG2_275 (LLPGSVR; listed as Homo sapiens) | 2.10 | –
HSPG2_2331 (ANLAYPAGSTQPIR; listed as Homo sapiens) | 1.91 | –
HSPG2_2333 (LAYPAGSTQPIR; listed as Homo sapiens) | 1.41 | –
IGFBP3_31 (SAGLGPVVR; listed as Homo sapiens) | 2.44 | –
IGFBP3_32 (AGLGPVVR; listed as Homo sapiens) | 5.18 | –
IGFBP7_101 (AAGGPGVSGVCVCKSR; listed as Homo sapiens) | 2.57 | –
LOXL1_219 (VASAGVIYPYQPR; listed as Homo sapiens) | – | 1.47
LOXL2_37 (FQQPAPEYHQPQAPANVAKIQLR; listed as Homo sapiens) | – | 3.30
LOXL2_38 ([code q]QPAPEYHQPQAPANVAKIQLR; not fully specified; listed as Homo sapiens) | – | 1.68
LOX_58 (LSLGSQYQPQR; listed as Homo sapiens) | 1.77 | –
LOX_123 (HWFQAGYSTSR; listed as Homo sapiens) | 1.37 | –
LOX_124 (WFQAGYSTSR; listed as Homo sapiens) | 3.45 | –
LOX_126 (QAGYSTSR; listed as Homo sapiens) | 3.03 | –
LTBP1_393 (LTATNFR; listed as Homo sapiens) | – | 6.30
LTBP1_540 (HQQVIPHVYPVAAKTQLGR; listed as Homo sapiens) | – | 1.77
